Measurements from ChEMBL document CHEMBL3751684, “2,3-Dihydrobenzofuran privileged structures as new bioinspired lead compounds for the design of mPGES-1 inhibitors” (Bioorg Med Chem, 2016).
The source made the active and inactive calls. No cut-off for these calls is given here.

What follows are compounds tested against T1, Prostaglandin E synthase (Homo sapiens, UniProt O14684) (assay: Inhibition of PGES-1 in IL-1beta stimulated human A549 cell microsomes using PGH2 as substrate assessed as suppression of PGE2 formation preincubated for 15 mins followed by substrate addition by reversed phase-HPLC analysis).
T1 sequence (O14684 whole entry): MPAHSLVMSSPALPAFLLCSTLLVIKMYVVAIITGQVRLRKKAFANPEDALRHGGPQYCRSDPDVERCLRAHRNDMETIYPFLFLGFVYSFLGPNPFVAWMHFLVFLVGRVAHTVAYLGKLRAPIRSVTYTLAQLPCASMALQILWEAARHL
Work on `O=C(/C=C/c1cc(O)c2c(c1)[C@@H](C(=O)OCCc1ccccc1)[C@H](c1ccc(O)c(O)c1)O2)OCCc1ccccc1` yielded an IC50 of 2100 nM.
`O=C(/C=C/c1cc(O)c2c(c1)[C@H](C(=O)OCCc1ccccc1)[C@@H](c1ccc(O)c(O)c1)O2)OCCc1ccccc1` was tested, and the IC50 was 2800 nM.
With `CCOC(=O)/C=C/c1cc(O)c2c(c1)[C@@H](C(=O)OCC)[C@H](c1ccc(O)c(O)c1)O2` (racemic) the IC50 was 3600 nM.
`O=C(/C=C/c1cc(O)c2c(c1)[C@@H](C(=O)OCCc1ccccc1)[C@H](c1ccc(O)c(O)c1)O2)OCCc1ccccc1` (racemic) [listing 1 of 2 here] showed an IC50 of 2000 nM.
With `CCCCOC(=O)/C=C/c1cc(O)c2c(c1)[C@@H](C(=O)OCCCC)[C@H](c1ccc(O)c(O)c1)O2` (racemic) the IC50 was 2100 nM.
For `COC(=O)/C=C/c1cc(O)c2c(c1)[C@@H](C(=O)OC)[C@H](c1ccc(O)c(O)c1)O2` (racemic), the IC50 was 8500 nM.

Each compound was assayed against T2, Prostaglandin E synthase (Homo sapiens) (UniProt O14684) (assay: Inhibition of PGES-1 in IL-1beta stimulated human A549 cell microsomes using PGH2 as substrate assessed as suppression of PGE2 formation at 10 uM preincubated for 15 mins followed by substrate addition by reversed phase-HPLC analysis).
T2 sequence (whole entry): T1 sequence (O14684 whole entry)
`CCOC(=O)/C=C/c1cc(O)c2c(c1)[C@@H](C(=O)OCC)[C@H](c1ccc(O)c(O)c1)O2` (racemic) was tested, and the inhibition was “Active”.
In the case of `CCCCOC(=O)/C=C/c1cc(O)c2c(c1)[C@@H](C(=O)OCCCC)[C@H](c1ccc(O)c(O)c1)O2` (racemic), the inhibition is reported as “Active”.
For `COC(=O)/C=C/c1cc(O)c2c(c1)[C@@H](C(=O)OC)[C@H](c1ccc(O)c(O)c1)O2` (racemic), the inhibition was “Active”.
For `C=Cc1ccc(/C=C/c2ccc3c(c2)[C@@H](c2ccc(C=C)cc2)[C@H](c2ccc(O)cc2)O3)cc1` (racemic), the inhibition was “inactive”.
`COc1cc(/C=C/c2ccc3c(c2)[C@@H](c2cc(OC)cc(OC)c2)[C@H](c2ccc(O)cc2)O3)cc(OC)c1` (racemic) was tested, and the inhibition was “Active”.
`COc1cc([C@@H]2Oc3c(OC)cc(/C=C/c4cc(OC)c(OC)c(OC)c4)cc3[C@H]2c2cc(OC)c(OC)c(OC)c2)ccc1O` (racemic) was tested, and the inhibition was “Active”.
In the case of `COc1ccc(/C=C/c2ccc3c(c2)[C@@H](c2ccc(OC)cc2)[C@H](c2ccc(O)cc2)O3)cc1` (racemic), the inhibition is reported as “Active”.
In the case of `O=C(/C=C/c1cc(O)c2c(c1)[C@@H](C(=O)OCCc1ccccc1)[C@H](c1ccc(O)c(O)c1)O2)OCCc1ccccc1` (racemic) [listing 2 of 2 here], the inhibition is reported as “Active”.
